Measured values from patent publication US11236052B2, “Aminobenzimidazole derivatives, treatments, and methods of inhibiting histone deacetylase” (TRANSLATIONAL DRUG DEVELOPMENT, LLC, priority 2017, dated 2022).
Like-named read-outs stand apart in the source and are kept apart here. Blank lines part the entries; values can stand above or below the compound they belong to.

How the values were obtained:
MM1.S cells = test: CellTiter-Glo cell viability assay, MM1.S cells; type: cell-based, human; conditions: Homo sapiens; MM1.S cells, 72 hours treatment; read-out: IC50 in MM1.S
Experimental: Cell viability in the presence of varying concentrations of the above listed compounds at different time points was used to assess cytotoxicity and the effect of the compounds on cell proliferation.
(§1) Cell Viability Assay—Cell viability was measured by the CellTiter-GlO® cell viability assay from Promega (Madison, Wis.). The CellTiter-GlO® Luminescent Cell Viability Assay is a homogeneous method to determine the number of viable cells in culture based on quantitation of the ATP present, which signals the presence of metabolically active cells. Following treatment, CellTiter-GlO® is added to treatment wells and incubated at 37° C. luminescence values were measured at using a Molecular Devices Spectramax microplate reader
(§2) Single Agent Studies—Cells were grown to 70% confluency, trypsinized, counted, and seeded in 96 well flat-bottom plates at a final concentration of 2.5×10^3-5×10^3 cells/well (Day 0). Cells were allowed to incubate in growth media for 24 hours. Treatment with the test agents or standard agents began on Day 1 and continued for 72 hours. At the 72 hour timepoint, treatment containing media was removed. Viable cell numbers are quantified by the CellTiter-GlO® cell viability assay as described above. Results from these studies were used to calculate an IC50 value (concentration of drug that inhibits cell growth by 50 percent of control) for each compound.
Data Collection—For single agent and combination studies, data from each experiment was collected and expressed as % Cell Growth using the following calculation: Cell Growth=(ftest/fvehicle)×100
Where ftest is the fluorescence of the tested sample, and fvehicle is the fluorescence of the vehicle in which the drug is dissolved. Dose response graphs and IC50 values were generated using Prism 6 software (GraphPad) using the following equation: […]
Where X is the logarithm of concentration and Y is the response. Y starts at the Bottom and goes to Top with a sigmoid shape.
as §1, with “CellTiter-Glo®” for “CellTiter-GlO®”, “assay” for “assay from”, “reader.” for “reader”
as §2, with “agents” for “agents or standard agents”, “72-hour time point, treatment-containing” for “72 hour timepoint, treatment containing”, “CellTiter-Glo®” for “CellTiter-GlO®”, “above. Experiments were run with triplicate concentrations to determine growth inhibitory activity.” for “above.”
Data Collection—For single agent and combination studies, data from each experiment was collected and expressed as % Cell Growth using the following calculation: % Cell Growth=(ftest/fvehicle)×100
Where ftest is the luminescence of the tested sample, and fvehicle is the luminescence of the vehicle in which the drug is dissolved. Dose response graphs and IC50 values were generated using Prism 6 software (GraphPad).

[1] = Pharmacokinetic studies in the mouse; type: in vivo
Experimental: Plasma samples were collected from healthy mice and analyzed for levels of compound ID #1, ID #2, and ID #3 and reported in Table 5. In brief, compounds were individually and accurately weighed out to produce a stock solution in Dimethyl-sulfoxide (DMSO) at a concentration of 2 mg/mL and stored at −20° C. From the stock solution, a working stock was prepared by diluting it in Methanol-Water 50:50 (v/v) at 20 μg/mL for calibration curve preparation and stored at 4° C. Standards used for quantitation and quality control samples (QC's) were prepared on the same day of sample processing using blank plasma obtained from non-treated mice. For each analyte, standards were prepared through serial dilution of the working stock at concentrations of 0.1, 0.5, 1.0, 10, 50, 100, 500 and 1000 ng/mL; QC's were prepared at intermediate concentrations of 0.75, 7.5, 75 and 750 ng/mL. Plasma samples were stored at −80° C. until ready for analysis and then placed on ice for thawing. An aliquot of 20 μL for samples, standards and QC's, were transferred into a 96-well extraction plate according to a pre-defined layout. Appropriate volume of Methanol-Formic Acid 99.9-0.1 containing internal standard (Verapamil at 25 ng/mL) was added to each well and samples were extracted under vacuum. Eluent was then transferred into a LCMS plate for analysis using a suitable column for separation and MRM detection. Concentration of analytes was calculated based on the calibration curve and analyzed for pharmacokinetic parameters by using Non-compartmental analysis (NCA) using WinNonlin Phoenix software. Parameters such as Cmax, Tmax, half-life, AUC(0-last), AUC(0-∞), volume of distribution (Vss) and clearance (Cl/F) were reported.
The analogs were tested for pharmacokinetic analysis in the mouse with doses of 1 mg/kg for intravenous (IV) route and 5 mg/kg for oral (P0) route. […] Overall exposure following IV dose also favored compound ID #1 with AUCO-∞ 1488.1 hr*ng/mL whereas compound ID #2 and ID #3 were 329.1 and 1193.7 hr*ng/mL, respectively.

S9 in vitro half-life = type: in vitro ADME; conditions: S9 fraction
HDAC6 = HDAC6 (Homo sapiens (Human), UniProt Q9UBN7); test: In vitro HDAC enzyme inhibition, mobility shift; type: biochemical; conditions: purified enzyme
HDAC6, sequence (Q9UBN7 whole entry): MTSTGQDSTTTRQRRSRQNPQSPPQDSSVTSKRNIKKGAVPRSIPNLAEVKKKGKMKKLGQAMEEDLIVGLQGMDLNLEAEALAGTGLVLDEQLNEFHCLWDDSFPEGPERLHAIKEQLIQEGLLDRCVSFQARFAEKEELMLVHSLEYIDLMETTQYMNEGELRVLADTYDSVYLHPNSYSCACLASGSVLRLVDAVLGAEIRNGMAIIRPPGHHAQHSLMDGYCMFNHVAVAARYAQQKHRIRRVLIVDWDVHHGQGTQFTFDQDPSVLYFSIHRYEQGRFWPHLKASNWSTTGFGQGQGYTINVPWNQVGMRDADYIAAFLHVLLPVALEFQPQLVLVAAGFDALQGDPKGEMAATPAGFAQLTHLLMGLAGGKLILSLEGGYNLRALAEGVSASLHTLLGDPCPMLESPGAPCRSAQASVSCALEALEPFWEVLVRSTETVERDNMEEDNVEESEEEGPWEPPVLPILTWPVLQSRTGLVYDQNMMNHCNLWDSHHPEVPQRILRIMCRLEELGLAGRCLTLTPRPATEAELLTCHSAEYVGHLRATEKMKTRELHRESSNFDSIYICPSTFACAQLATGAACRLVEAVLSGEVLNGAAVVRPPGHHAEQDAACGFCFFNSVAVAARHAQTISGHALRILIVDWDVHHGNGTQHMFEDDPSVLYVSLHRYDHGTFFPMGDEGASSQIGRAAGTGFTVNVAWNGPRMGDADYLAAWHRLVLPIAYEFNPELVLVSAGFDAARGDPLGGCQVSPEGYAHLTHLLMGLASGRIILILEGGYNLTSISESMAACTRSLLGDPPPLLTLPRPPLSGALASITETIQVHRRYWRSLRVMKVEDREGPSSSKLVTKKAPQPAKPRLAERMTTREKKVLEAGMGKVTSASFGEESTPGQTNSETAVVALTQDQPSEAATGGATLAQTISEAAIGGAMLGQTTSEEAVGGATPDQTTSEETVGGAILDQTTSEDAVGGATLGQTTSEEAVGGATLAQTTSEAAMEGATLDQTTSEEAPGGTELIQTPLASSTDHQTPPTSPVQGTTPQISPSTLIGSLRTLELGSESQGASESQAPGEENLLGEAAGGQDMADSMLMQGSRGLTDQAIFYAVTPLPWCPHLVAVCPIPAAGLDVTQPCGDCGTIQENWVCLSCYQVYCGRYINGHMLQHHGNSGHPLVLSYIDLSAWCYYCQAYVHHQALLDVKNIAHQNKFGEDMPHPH
Experimental: (§3) Purified histone deacetylase enzymes 1, 3, 6, 10 were incubated with fluorescently labeled substrate and test compounds in a standardized reaction mixture in 384 well plates. Upon termination of the reaction, samples were introduced onto microfluidic chips. Samples migrate through channels in the chips and product and substrate are separated based on the difference in their charge and mass (electrophoretic mobility shift). Enzyme activity is measured by direct comparison of the fluorescence in the product and substrate peaks and the results presented in Table 4.

HDAC1 = HDAC1 (Homo sapiens (Human), UniProt Q13547); test: In vitro HDAC enzyme inhibition, mobility shift; type: biochemical; conditions: purified enzyme
HDAC1, sequence (Q13547 whole entry): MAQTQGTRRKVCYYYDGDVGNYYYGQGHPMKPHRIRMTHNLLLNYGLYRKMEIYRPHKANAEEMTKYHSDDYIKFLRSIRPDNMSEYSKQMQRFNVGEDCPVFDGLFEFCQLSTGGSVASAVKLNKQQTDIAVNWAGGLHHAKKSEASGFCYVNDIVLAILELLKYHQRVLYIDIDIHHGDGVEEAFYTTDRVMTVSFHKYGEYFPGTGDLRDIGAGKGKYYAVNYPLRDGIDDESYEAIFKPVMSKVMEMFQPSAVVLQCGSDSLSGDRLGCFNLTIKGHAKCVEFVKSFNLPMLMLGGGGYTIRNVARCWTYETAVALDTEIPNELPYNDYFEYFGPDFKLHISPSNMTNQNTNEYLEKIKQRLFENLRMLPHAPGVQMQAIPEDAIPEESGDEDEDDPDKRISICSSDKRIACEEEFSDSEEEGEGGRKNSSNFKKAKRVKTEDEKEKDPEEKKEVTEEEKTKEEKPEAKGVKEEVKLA
Experimental: as §3

HDAC3 = HDAC3 (Homo sapiens (Human), UniProt O15379); test: In vitro HDAC enzyme inhibition, mobility shift; type: biochemical; conditions: purified enzyme
HDAC3, sequence (O15379 whole entry): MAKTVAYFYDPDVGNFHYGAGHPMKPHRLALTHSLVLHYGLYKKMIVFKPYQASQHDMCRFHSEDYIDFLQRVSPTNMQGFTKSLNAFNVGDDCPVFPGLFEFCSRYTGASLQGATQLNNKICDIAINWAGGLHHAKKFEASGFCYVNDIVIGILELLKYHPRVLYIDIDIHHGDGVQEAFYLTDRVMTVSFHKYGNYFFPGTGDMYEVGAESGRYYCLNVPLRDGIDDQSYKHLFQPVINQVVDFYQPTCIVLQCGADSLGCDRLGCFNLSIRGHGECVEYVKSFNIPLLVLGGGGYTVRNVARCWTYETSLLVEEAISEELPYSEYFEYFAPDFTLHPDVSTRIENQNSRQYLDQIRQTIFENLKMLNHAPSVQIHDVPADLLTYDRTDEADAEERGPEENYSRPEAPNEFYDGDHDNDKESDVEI
HDAC3, sequence (Q9Y618 395-489 partner): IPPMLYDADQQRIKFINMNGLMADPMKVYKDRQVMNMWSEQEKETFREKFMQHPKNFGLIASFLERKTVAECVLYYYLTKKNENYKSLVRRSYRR
Experimental: as §3

HDAC10 = HDAC10 (Homo sapiens (Human), UniProt Q969S8); test: In vitro HDAC enzyme inhibition, mobility shift; type: biochemical; conditions: purified enzyme
HDAC10, sequence (Q969S8 whole entry): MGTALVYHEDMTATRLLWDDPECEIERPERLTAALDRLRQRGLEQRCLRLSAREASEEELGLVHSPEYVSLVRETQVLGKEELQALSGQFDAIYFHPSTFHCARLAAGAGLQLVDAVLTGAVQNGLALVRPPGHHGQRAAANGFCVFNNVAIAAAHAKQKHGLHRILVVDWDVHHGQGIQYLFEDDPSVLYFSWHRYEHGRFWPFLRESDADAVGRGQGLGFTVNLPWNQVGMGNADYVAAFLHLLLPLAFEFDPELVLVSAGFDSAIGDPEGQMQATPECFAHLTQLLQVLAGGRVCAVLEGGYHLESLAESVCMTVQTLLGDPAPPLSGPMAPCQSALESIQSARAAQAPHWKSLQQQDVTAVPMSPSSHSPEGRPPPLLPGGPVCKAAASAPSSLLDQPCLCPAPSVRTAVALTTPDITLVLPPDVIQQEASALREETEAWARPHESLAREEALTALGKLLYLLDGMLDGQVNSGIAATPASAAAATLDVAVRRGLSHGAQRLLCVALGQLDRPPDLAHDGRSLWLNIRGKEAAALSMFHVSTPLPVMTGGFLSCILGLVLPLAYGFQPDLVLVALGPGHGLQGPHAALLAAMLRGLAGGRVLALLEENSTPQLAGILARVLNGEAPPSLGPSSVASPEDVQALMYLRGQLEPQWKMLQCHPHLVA
Experimental: as §3

Permeability (PAMPA) = type: in vitro ADME; conditions: read-out: Permeabiltiy (PAMPA)

SMILES: O=C(NO)c1ccc(Nc2nc3ccccc3n2CC2CCCC2)cc1 [ID #5, 4-((1-(cyclopentylmethyl)-1H-benzo[d]imidazol-2-yl)amino)-N-hydroxybenzamide]
IC50 (MM1.S cells): 2.2 µM

SMILES: O=C(NO)c1ccc(Nc2nc3ccccc3n2CC2CCOCC2)cc1 [ID #9, N-hydroxy-4-((1-((tetrahydro-2H-pyran-4-yl)methyl)-1H-benzo[d]imidazol-2-yl)amino)benzamide]
IC50 (MM1.S cells): 2.9 µM

SMILES: O=C(NO)c1ccc(Nc2nc3ccccc3n2CC2(F)CCCCC2)cc1 [ID #4]
IC50 (MM1.S cells): 2.6 µM

SMILES: O=C(NO)c1ccc(Nc2nc3cc(F)ccc3n2CC2CCOCC2)cc1 [ID #10, 4-((5-fluoro-1-((tetrahydro-2H-pyran-4-yl)methyl)-1H-benzo[d]imidazol-2-yl)amino)-N-hydroxybenzamide]
IC50 (MM1.S cells): 2.9 µM

Stronger by IC50 (MM1.S cells), values ahead:

IC50 (MM1.S cells): 0.7 µM
SMILES: O=C(NO)c1ccc(Nc2nc3ccccc3n2CC2CCC(F)(F)CC2)cc1 [ID #7]

AUC0-∞ ([1]; 1.0 mg/kg IV): 329.14 ng·h/mL
AUC % Extrap ([1]; 1.0 mg/kg IV): 1.44%
Cl/F obs ([1]; 1.0 mg/kg IV): 50.7 mL/min/kg
Rsq (>0.85) ([1]; 1.0 mg/kg IV): 0.85
half-life ([1]; 1.0 mg/kg IV): 1.20 h
AUC % Extrap ([1]; 5.0 mg/kg PO): 0.14%
Cmax ([1]; 5.0 mg/kg PO): 407.10 ng/mL
Rsq (>0.85) ([1]; 5.0 mg/kg PO): 1.00
AUC(0-t) ([1]; plasma, 1.0 mg/kg IV): 324 ng·h/mL
Tmax ([1]; plasma, 1.0 mg/kg IV): 0.08 h
half-life ([1]; plasma, 1.0 mg/kg IV, read-out: Half-life (converted)): 1.2 h
Vd ([1]; plasma, 1.0 mg/kg IV, read-out: Vss): 3.5 L/kg
AUC(0-t) ([1]; plasma, 5.0 mg/kg PO): 1280 ng·h/mL
CL/F ([1]; plasma, 5.0 mg/kg PO): 65.2 mL/min/kg
Tmax ([1]; plasma, 5.0 mg/kg PO): 0.5 h
bioavailability ([1]; plasma, 5.0 mg/kg PO): 77.6%
half-life ([1]; plasma, 5.0 mg/kg PO, read-out: Half-life (converted)): 2.56 h
Vd/F ([1]; plasma, 5.0 mg/kg PO, read-out: Vz/F obs): 14.5 L/kg
AUC(0-inf) ([1]; plasma, iv, 1 mg/kg, 1.0 mg/kg IV, read-out: AUC0-∞): 329 ng·h/mL
Cmax ([1]; plasma, iv, 1 mg/kg, 1.0 mg/kg IV, read-out: Cmax): 508 ng/mL
AUC(0-inf) ([1]; plasma, po, 5 mg/kg, 5.0 mg/kg PO, read-out: AUC0-∞): 1280 ng·h/mL
Cmax ([1]; plasma, po, 5 mg/kg, 5.0 mg/kg PO, read-out: Cmax): 407 ng/mL
AUC(0-inf) ([1]; plasma, po, 5 mg/kg, 5 mg/kg oral, read-out: AUC0-∞ (overall exposure following oral doses)): 1280 ng·h/mL
half-life (S9 in vitro half-life): > 1.5 h
IC50 (HDAC6): 0.015 µM
IC50 (HDAC1): 0.385 µM
IC50 (HDAC3): 0.068 µM
IC50 (HDAC10): 3.56 µM
Papp (Permeability (PAMPA)): 1.65 ×10⁻⁶ cm/s
IC50 (MM1.S cells): 2 µM
SMILES: O=C(NO)c1ccc(Nc2nc3ccccc3n2C2CCCCC2)cc1 [ID #2, 4-((1-cyclohexyl-1H-benzo[d]imidazol-2-yl)amino)-N-hydroxybenzamide]

IC50 (MM1.S cells): 1.2 µM
SMILES: O=C(NO)c1ccc(Nc2nc3cc(F)ccc3n2CC2CCC(F)(F)CC2)cc1 [ID #8]

IC50 (MM1.S cells): 1.1 µM
SMILES: O=C(NO)c1ccc(Nc2nc3ccccc3n2CCC2CCCC2)cc1 [ID #6, 4-((1-(2-cyclopentylethyl)-1H-benzo[d]imidazol-2-yl)amino)-N-hydroxybenzamide]
